According to patent US20190111137A1, “METHODS FOR ANTAGONISTS OF A NON-SELECTIVE CATION CHANNEL IN NEURAL CELLS” (University of Maryland, Baltimore, priority 2007, published 2019):
Several values for one entry are separate records, joined by “and”; a condition that tells them apart may be missing. Equal entries are not always repeated. Entries after “also recorded” stand apart in the source; their conditions may differ.

How the values were obtained:
[1] = tested on: rat model of contusion SCI; assay: Rat model of unilateral cervical spinal cord injury (SCI); assay type: in vivo; settings: 24 h post-SCI
[2] = tested on: TRPM4 channel; settings: read-out: glibenclamide block (EC50); cited from earlier work
[3] = tested on: rat model of contusion SCI; settings: as reported (Simard et al., 2007); cited from earlier work
[4] = tested on: rodent models of ischemic stroke; settings: cited from earlier work
[5] = constant infusion 75-200 ng/h; cited from earlier work
[6] = tested on: reactive astrocytes; settings: cells exposed to Na azide to deplete ATP; cited from earlier work
[7] = tested on: rat model of ischemic stroke; settings: given 30 min after initiation of permanent MCAO; cited from earlier work
[8] = tested on: global cerebral ischemia in gerbils; settings: in vivo; cited from earlier work
[9] = tested on: TRPM4; assay: TRPM4 protein in bEnd.3 cells after 6-h exposure to TNFα (Western blot); assay type: cell-based, murine; settings: 20 ng/ml
Method: TNFα causes up-regulation NCCa-ATP (putative TRPM4) channel in bEnd.3. In certain aspects of the invention, injury leads to NFκB activation, such as SCI, and can result in up-regulation of functional TRPM4 channels. Murine CNS microvascular endothelial cells (bEnd.3, ATTC, Rockville, Md.) were studied under control conditions and after 6-h exposure to the pro-inflammatory cytokine, TNFα (20 ng/ml), which activates NFκB. Cultures were immunolabeled for TRPM4 and TRPM5, the only 2 molecularly identified non-selective cation channels with exclusive monovalent conductivity. […] Immunolabeling for TRPM5 was negative. Western blots confirmed robust up-regulation of TRPM4 (3-fold increase, FIGS. 19C,19D).

[10] = molecular target: receptor-mediated Ca^2+ entry; settings: cited from earlier work
[11] = molecular target: T1, human TRP3 (Homo sapiens, UniProt Q13507); settings: high concentrations; cited from earlier work
T1 construct: expressed in transfected cells
T1 sequence (Q13507 1-848 isoform Q13507-3): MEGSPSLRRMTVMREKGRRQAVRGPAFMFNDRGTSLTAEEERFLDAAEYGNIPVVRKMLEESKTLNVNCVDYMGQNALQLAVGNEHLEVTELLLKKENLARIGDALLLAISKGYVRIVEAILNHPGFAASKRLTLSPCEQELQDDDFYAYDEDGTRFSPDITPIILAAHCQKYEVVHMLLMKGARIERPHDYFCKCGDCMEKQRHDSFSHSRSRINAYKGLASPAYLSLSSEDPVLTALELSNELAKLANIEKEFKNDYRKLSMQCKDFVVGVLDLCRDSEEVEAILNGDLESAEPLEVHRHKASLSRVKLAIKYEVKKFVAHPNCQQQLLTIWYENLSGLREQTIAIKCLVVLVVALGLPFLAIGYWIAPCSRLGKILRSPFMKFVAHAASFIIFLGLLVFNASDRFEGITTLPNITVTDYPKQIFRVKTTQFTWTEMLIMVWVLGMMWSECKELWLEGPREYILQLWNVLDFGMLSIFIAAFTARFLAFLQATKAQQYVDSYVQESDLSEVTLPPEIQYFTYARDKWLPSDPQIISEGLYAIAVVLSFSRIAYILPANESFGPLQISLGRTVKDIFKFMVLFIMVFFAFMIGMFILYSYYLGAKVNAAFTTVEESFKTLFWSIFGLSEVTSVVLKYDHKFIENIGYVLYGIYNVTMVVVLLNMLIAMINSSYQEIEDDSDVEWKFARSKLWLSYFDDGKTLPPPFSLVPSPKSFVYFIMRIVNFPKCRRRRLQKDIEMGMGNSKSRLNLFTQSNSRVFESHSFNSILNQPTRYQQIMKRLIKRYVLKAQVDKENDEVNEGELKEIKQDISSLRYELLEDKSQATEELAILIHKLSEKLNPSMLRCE

[12] = tested on: endothelial cells of the BBB; settings: cited from earlier work

Compound: COc1ccc(Cl)cc1C(=O)NCCc1ccc(S(=O)(=O)NC(=O)NC2CCCCC2)cc1 [glibenclamide]
- TRPM4 expression in cord (immunolabeling) [1]: significantly reduced
- EC50 [2]: 10 to 100 µM
- neurological function [3]: significantly improves neurological outcome; also recorded: improves neurological function
- progressive hemorrhagic necrosis [3]: significantly reduces progressive hemorrhagic necrosis
- tissue loss [3]: significantly reduces
- reduction of mortality ([4]; massive ischemic stroke with malignant cerebral edema): half
- reduction of cerebral edema (excess water) ([4]; massive ischemic stroke with malignant cerebral edema, low-dose, post-ischemic): half
- reduction of lesion volume ([4]; stroke induced by thromboemboli with delayed spontaneous reperfusion): half
- predicted serum concentration [5]: 1-3 ng/ml and 2-6 nM
- blebbing associated with cytotoxic edema [6]: significantly reduces blebbing
- membrane depolarization [6]: blocks membrane depolarization
- necrotic cell death [6]: significantly reduces necrotic cell death

Compound: Cc1c(C(=O)NN2CCCCC2)nn(-c2ccc(Cl)cc2Cl)c1-c1ccc(Cl)cc1 [rimonabant]
- reduction of infarct volume [7]: ~40%
- electroencephalographic changes, hyperlocomotion and memory impairment induced by global ischemia [8]: antagonize
- survival of pyramidal cells in the CA1 subfield of the hippocampus [8]: progressive survival

Compound: TNFα
- up-regulation of TRPM4 (Western blots) [9]: 3 fold

Compound: COc1ccc(CCCOC(Cn2ccnc2)c2ccc(OC)cc2)cc1.Cl (stereo not drawn) [SKF 96365, 1-(beta[3-(4-methoxy-phenyl)propoxy]-4-methoxyphenethyl)-1H-imidazole hydrochloride]
- IC50 [10]: ~10 µM
- increased Ca^2+ entry in TRP3-expressing cells [11]: blocked
- expression of the tight junction protein occludin ([12]; after hypoxic/aglycemic stress): increased
- hypoxia-induced BBB disruption ([12]; normoglycemia): protective
